Measurements as given in patent publication US20240327412A1, “FACTOR XIIA INHIBITORS” (KALVISTA PHARMACEUTICALS LIMITED, priority 2021, published 2024).

Assays:
Type in all cases: biochemical
Plasma Kallikrein = target: T1, Plasma Kallikrein (Homo sapiens, UniProt P03952); experiment: Related protease inhibition: Plasma Kallikrein (fluorogenic substrate at Km); details: class symbols per Table 18, read-out: IC50 (human PKal)
T1 construct: FXIIa converts plasma prekallikrein (PK) to plasma kallikrein (PKa)
T1 sequence (P03952 391-638 limits assumed): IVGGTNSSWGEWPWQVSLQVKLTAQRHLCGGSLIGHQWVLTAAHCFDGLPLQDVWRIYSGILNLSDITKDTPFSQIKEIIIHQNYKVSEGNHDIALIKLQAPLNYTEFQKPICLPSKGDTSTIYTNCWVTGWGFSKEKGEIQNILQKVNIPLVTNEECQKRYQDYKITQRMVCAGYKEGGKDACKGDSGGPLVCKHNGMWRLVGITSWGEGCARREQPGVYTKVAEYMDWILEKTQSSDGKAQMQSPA
T1 sequence (P03952 20-390 partner limits assumed): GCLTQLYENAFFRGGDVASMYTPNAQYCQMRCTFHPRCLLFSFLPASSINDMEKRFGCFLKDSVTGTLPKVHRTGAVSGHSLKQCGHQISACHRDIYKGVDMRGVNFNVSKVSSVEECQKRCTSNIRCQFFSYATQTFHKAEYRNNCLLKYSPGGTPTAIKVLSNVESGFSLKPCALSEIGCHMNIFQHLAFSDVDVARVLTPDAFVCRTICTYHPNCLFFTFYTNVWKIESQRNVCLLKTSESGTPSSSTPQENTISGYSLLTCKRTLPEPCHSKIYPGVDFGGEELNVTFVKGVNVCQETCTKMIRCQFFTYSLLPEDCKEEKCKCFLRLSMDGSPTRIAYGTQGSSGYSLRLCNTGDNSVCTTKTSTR
Method: (§1) In vitro inhibition of related proteases was determined using an IC50 assay based on standard literature methods (see e.g. Shori et al., Biochem. Pharmacol., 1992, 43, 1209; Bouckaert et al., European Journal of Medicinal Chemistry 110 (2016) 181). Human serine protease enzyme Plasma Kallikrein, KLK1, FXa, Plasmin, Thrombin and Trypsin were assayed for enzymatic activity using an appropriate fluorogenic substrate at Km concentration, FXIa at fixed substrate concentration of 100 μM and various concentrations of the test compound. Protease activity was measured by monitoring the accumulation of liberated fluorescence from the substrate over 5 min at 25° C. The linear rate of fluorescence increase per minute was expressed as percentage (%) activity. IC50 values were calculated as the concentration of inhibitor giving 50% inhibition of the uninhibited enzyme activity (100%).

Human Factor XIIa = target: T2, Human Factor XIIa (Homo sapiens, UniProt P00748); experiment: Determination of FXIIa inhibition (fluorogenic substrate H-DPro-Phe-Arg-AFC, IC50 assay); details: substrate at Km concentration, 25° C.; category scale; read-out: Human FXII IC50 (nm)
T2 construct: Proteolytic cleavage of FXII to heavy and light chains of FXIIa dramatically increases catalytic activity; purchased Enzyme Research Laboratories
T2 sequence (P00748 373-615 limits assumed): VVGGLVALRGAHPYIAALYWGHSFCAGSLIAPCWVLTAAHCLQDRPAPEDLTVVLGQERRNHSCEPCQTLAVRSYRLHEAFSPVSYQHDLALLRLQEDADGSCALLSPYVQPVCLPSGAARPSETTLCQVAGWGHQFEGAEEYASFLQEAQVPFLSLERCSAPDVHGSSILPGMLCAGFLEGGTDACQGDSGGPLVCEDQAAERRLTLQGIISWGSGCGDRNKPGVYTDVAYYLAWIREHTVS
T2 sequence (P00748 20-372 partner limits assumed): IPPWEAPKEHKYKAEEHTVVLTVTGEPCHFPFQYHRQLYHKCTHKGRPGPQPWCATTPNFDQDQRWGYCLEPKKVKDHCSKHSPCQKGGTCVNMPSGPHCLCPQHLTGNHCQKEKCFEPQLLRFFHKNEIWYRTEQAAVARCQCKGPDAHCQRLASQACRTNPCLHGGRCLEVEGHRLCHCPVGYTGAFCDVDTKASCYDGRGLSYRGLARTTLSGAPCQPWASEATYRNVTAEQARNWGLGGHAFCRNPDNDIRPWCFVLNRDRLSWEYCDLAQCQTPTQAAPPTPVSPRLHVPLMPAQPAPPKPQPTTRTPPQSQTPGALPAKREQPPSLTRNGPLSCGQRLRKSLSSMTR
Procedure, shortened: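 Human FXIIa incubated at 25° C. with fluorogenic H-DPro-Phe-Arg-AFC at its Km concentration plus varying compound levels. Linear fluorescence increase over 5 min taken as % activity; IC50 is concentration halving uninhibited activity.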

KLK1 = KLK1 (Homo sapiens, UniProt P06870); experiment: Related protease inhibition: KLK1 (fluorogenic substrate at Km); details: class symbols per Table 18
Sequence of KLK1 (P06870 25-262): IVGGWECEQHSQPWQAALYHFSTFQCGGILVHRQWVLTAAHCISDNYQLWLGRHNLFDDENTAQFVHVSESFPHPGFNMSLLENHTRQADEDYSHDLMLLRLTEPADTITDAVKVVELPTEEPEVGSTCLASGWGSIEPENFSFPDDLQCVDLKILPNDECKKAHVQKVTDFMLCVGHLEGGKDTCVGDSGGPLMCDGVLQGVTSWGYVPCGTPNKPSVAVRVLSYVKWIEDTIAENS
Method: as §1

FXa = FXa (Homo sapiens, UniProt P00742); experiment: Related protease inhibition: FXa (fluorogenic substrate at Km); details: class symbols per Table 18
Sequence of FXa (P00742 235-488 limits assumed): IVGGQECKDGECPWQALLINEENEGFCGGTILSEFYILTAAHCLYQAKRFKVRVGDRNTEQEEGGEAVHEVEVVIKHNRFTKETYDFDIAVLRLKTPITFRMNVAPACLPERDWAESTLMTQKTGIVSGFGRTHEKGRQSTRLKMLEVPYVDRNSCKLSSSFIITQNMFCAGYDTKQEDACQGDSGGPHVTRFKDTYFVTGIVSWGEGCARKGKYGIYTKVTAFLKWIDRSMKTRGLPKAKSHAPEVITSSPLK
Sequence of FXa (P00742 41-179 partner limits assumed): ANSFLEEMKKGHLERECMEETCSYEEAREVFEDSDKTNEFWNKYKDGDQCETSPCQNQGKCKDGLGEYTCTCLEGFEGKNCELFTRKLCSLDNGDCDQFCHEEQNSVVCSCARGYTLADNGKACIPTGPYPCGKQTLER
Method: as §1

Structure (SMILES) | IC50 (Plasma Kallikrein) [µM] | IC50 (Human Factor XIIa) [µM] | IC50 (KLK1) [µM] | IC50 (FXa) [µM]
c1cc(NCC23CC(COc4ccn5ccnc5c4)(C2)C3)c2cc[nH]c2n1 [Example 1009, N-((3-((imidazo[1,2-a]pyridin-7-yloxy)methyl)bicyclo[1.1.1]pentan-1-yl)methyl)-1H-pyrrolo[2,3-b]pyridin-4-amine] | > 100 | 10 to 40 | > 100 | 
Clc1cc2c(NCC34CC(COc5ccn6ccnc6c5)(C3)C4)ccnc2[nH]1 [Example 1010] |  | 0.3 to 1 | > 40 | 1 to 3
CN1Cc2ccc(OCC34CC(CNc5cccc6c(N)nccc56)(CO3)C4)cc2C1=O [Example 2211, 6-((4-(((1-aminoisoquinolin-5-yl)amino)methyl)-2-oxabicyclo[2.1.1]hexan-1-yl)methoxy)-2-methylisoindolin-1-one] | > 4 | 0.1 to 0.3 | 1 to 3 | > 40
Nc1nccc2c(NCC34CC(COc5ccn6cc(C(F)F)nc6c5)(CO3)C4)cccc12 [Example 6613, N5-((4-(((2-(difluoromethyl)imidazo[1,2-a]pyridin-7-yl)oxy)methyl)-2-oxabicyclo[2.1.1]hexan-1-yl)methyl)isoquinoline-1,5-diamine] |  | 0.3 to 1 | 3 to 10 | 10 to 40
Nc1nccc2c(NCC34CC(COc5ccn6ccnc6n5)(CO3)C4)cccc12 [Example 6614, N5-((4-((imidazo[1,2-a]pyrimidin-7-yloxy)methyl)-2-oxabicyclo[2.1.1]hexan-1-yl)methyl)isoquinoline-1,5-diamine] | > 4 | 0.1 to 0.3 | 3 to 10 | > 40
Nc1nccc2c(NCC34CC(COc5ccc6nc(C(F)(F)F)cn6n5)(CO3)C4)cccc12 [Example 6615, N5-((4-(((2-(trifluoromethyl)imidazo[1,2-b]pyridazin-6-yl)oxy)methyl)-2-oxabicyclo[2.1.1]hexan-1-yl)methyl)isoquinoline-1,5-diamine] |  | 3 to 10 | 3 to 10 | > 40
Nc1nccc2c(NCC34CC(COc5cn6ccnc6cn5)(CO3)C4)cccc12 [Example 6616, N5-((4-((imidazo[1,2-a]pyrazin-6-yloxy)methyl)-2-oxabicyclo[2.1.1]hexan-1-yl)methyl)isoquinoline-1,5-diamine] |  | 0.3 to 1 | 3 to 10 | > 40
Cc1cc(OCC23COC(CNc4cccc5c(N)nccc45)(C2)C3)cn2ccnc12 [Example 6617, N5-((4-(((8-methylimidazo[1,2-a]pyridin-6-yl)oxy)methyl)-2-oxabicyclo[2.1.1]hexan-1-yl)methyl)isoquinoline-1,5-diamine] | > 40 | 0.01 to 0.1 | 3 to 10 | 10 to 40
CN1Cc2ccc(OCC34COC(CNc5cccc6c(N)nccc56)(C3)C4)cc2C1=O [Example 6628, 6-((1-(((1-aminoisoquinolin-5-yl)amino)methyl)-2-oxabicyclo[2.1.1]hexan-4-yl)methoxy)-2-methylisoindolin-1-one] |  | 0.1 to 0.3 | 3 to 10 | 
Nc1nccc2c(N3CCC4(CC(COc5ccn6ccnc6c5)C4)C3)cccc12 (stereo not drawn) [Example 8807, 5-(cis*-2-((imidazo[1,2-a]pyridin-7-yloxy)methyl)-6-azaspiro[3.4]octan-6-yl)isoquinolin-1-amine] |  | 0.3 to 1 | 10 to 40 | 
Clc1ccc(NCC23CC(COc4ccn5ccnc5c4)(CCO2)C3)cc1 [Example 10918, 4-chloro-N-((5-((imidazo[1,2-a]pyridin-7-yloxy)methyl)-2-oxabicyclo[3.1.1]heptan-1-yl)methyl)aniline] | > 40 |  | > 100 | > 40
Clc1cccc(NCC23CC(COc4ccn5ccnc5c4)(CCO2)C3)c1 [Example 10919, 3-chloro-N-((5-((imidazo[1,2-a]pyridin-7-yloxy)methyl)-2-oxabicyclo[3.1.1]heptan-1-yl)methyl)aniline] | > 40 |  | > 100 | > 40
Cc1cn2ccnc2cc1OCC12CCOC(CNc3cccc4c(N)nccc34)(C1)C2 [Example 10920, N5-((5-(((6-methylimidazo[1,2-a]pyridin-7-yl)oxy)methyl)-2-oxabicyclo[3.1.1]heptan-1-yl)methyl)isoquinoline-1,5-diamine] | 3 to 10 | 0.1 to 0.3 | 3 to 10 | 10 to 40
Clc1ccc2c(NCC34CC(COc5ccn6ccnc6c5)(CCO3)C4)ccnc2c1 [Example 10921, 7-chloro-N-((5-((imidazo[1,2-a]pyridin-7-yloxy)methyl)-2-oxabicyclo[3.1.1]heptan-1-yl)methyl)quinolin-4-amine] |  | 40 to 100 | 10 to 40 | 
Nc1ncc(Cl)c2cc(NCC34CC(COc5ccn6ccnc6c5)(CCO3)C4)ccc12 [Example 10922, 4-chloro-N6-((5-((imidazo[1,2-a]pyridin-7-yloxy)methyl)-2-oxabicyclo[3.1.1]heptan-1-yl)methyl)isoquinoline-1,6-diamine] |  | 0.3 to 1 | 0.3 to 1 | 
Cc1c(OCC23CCOC(CNc4cccc5c(N)nccc45)(C2)C3)ccn2ccnc12 [Example 10923, N5-((5-(((8-methylimidazo[1,2-a]pyridin-7-yl)oxy)methyl)-2-oxabicyclo[3.1.1]heptan-1-yl)methyl)isoquinoline-1,5-diamine] |  | 0.1 to 0.3 | 0.3 to 1 | 
Nc1nccc2c(NCC34CC(COc5cc(Cl)c6nccn6c5)(CCO3)C4)cccc12 [Example 10924, N5-((5-(((8-chloroimidazo[1,2-a]pyridin-6-yl)oxy)methyl)-2-oxabicyclo[3.1.1]heptan-1-yl)methyl)isoquinoline-1,5-diamine] |  | 0.1 to 0.3 | 3 to 10 | 
Cc1cc(OCC23CCOC(CNc4cccc5c(N)nccc45)(C2)C3)cc2nccn12 [Example 10925, N5-((5-(((5-methylimidazo[1,2-a]pyridin-7-yl)oxy)methyl)-2-oxabicyclo[3.1.1]heptan-1-yl)methyl)isoquinoline-1,5-diamine] |  | 0.01 to 0.1 | 3 to 10 | 
Nc1nccc2c(NCC34CCCC(COc5ccc6nccn6c5)(C3)C4)cccc12 [Example 10942, N5-((5-((imidazo[1,2-a]pyridin-6-yloxy)methyl)bicyclo[3.1.1]heptan-1-yl)methyl)isoquinoline-1,5-diamine] |  | 0.1 to 0.3 | 3 to 10 | > 40
Cn1ccc(OCC23CNC(CNc4cccc5c(N)nccc45)(C2)C3)cc1=O [Example 12007, 4-((1-(((1-aminoisoquinolin-5-yl)amino)methyl)-2-azabicyclo[2.1.1]hexan-4-yl)methoxy)-1-methylpyridin-2(1H)-one] | > 4 | 0.01 to 0.1 | 10 to 40 | > 40
Cn1ccc(OCC23CN(C(=O)Oc4ccccc4)C(CNc4cccc5c(N)nccc45)(C2)C3)cc1=O [Example 12008, phenyl 1-(((1-aminoisoquinolin-5-yl)amino)methyl)-4-(((1-methyl-2-oxo-1,2-dihydropyridin-4-yl)oxy)methyl)-2-azabicyclo[2.1.1]hexane-2-carboxylate] | > 4 | 0.01 to 0.1 | 1 to 3 | > 40
CC(=O)N1CC2(COc3ccn(C)c(=O)c3)CC1(CNc1cccc3c(N)nccc13)C2 [Example 12009, 4-((2-acetyl-1-(((1-aminoisoquinolin-5-yl)amino)methyl)-2-azabicyclo[2.1.1]hexan-4-yl)methoxy)-1-methylpyridin-2(1H)-one] | > 4 | 0.01 to 0.1 | 10 to 40 | > 40
Cn1ccc(OCC23CN(C(=O)OCc4ccccc4)C(CNc4ccc5c(N)nccc5c4)(C2)C3)cc1=O [Example 12010, benzyl 1-(((1-aminoisoquinolin-6-yl)amino)methyl)-4-(((1-methyl-2-oxo-1,2-dihydropyridin-4-yl)oxy)methyl)-2-azabicyclo[2.1.1]hexane-2-carboxylate] |  | 0.1 to 0.3 | 0.01 to 0.1 | 
